# Where a name gives a salt, the structure may show the parent alone.
# What was measured:
# Balb/c mice = experiment: DSS-induced colitis model; type: in vivo; settings: male Balb/c mice; 1-3% DSS for 5-7 days; 30 mg/kg orally once a day for 5-7 successive days
# From the text: Evaluation of Compounds in DSS-Induced Colitis Model
# A 1-3% solution of dextran sulfate sodium (hereinafter abbreviated as DSS; ICN) in purified water (Otsuka Pharmaceutical) was fed freely to 6- to 7-week-old male Balb/c mice (Charles River Japan) for 5-7 days to induce colitis. Disease Activity Index (hereinafter abbreviated as DAI) scored based on fecal hardness, blood content in feces and body weight change, the number of neutrophils infiltrating the colon and the length of the colon were used as indexes to evaluate compounds. Each compound was suspended or dissolved in an aqueous solution containing 0.5% methyl cellulose (Wako), and orally administered at 30 mg/kg once a day, for 5-7 successive days.
# [1] = test system: human peripheral blood neutrophils; experiment: Human peripheral blood neutrophil adhesion system (adhesion to immobilized HUVEC, PMA-stimulated); type: cell-based; settings: 0.75 h, concentration inhibiting by 50% the PMA-stimulated increase in the number of adhered BCECF-AM labeled neutrophils on HUVEC immobilized plate, 45 minutes, 37° C.
# Description: Evaluation of Compounds in Human Peripheral Blood Neutrophil Adhesion System
# <Preparation of Human Peripheral Blood Neutrophils>
# To a plastic centrifugation tube containing 100 units of heparin sodium (Shimizu Pharmaceutical) was added 25 ml of fresh blood sampled from a healthy human. After adding and mixing therewith 8 ml of physiological saline (Otsuka Pharmaceutical) containing 6% Dextran (Nacalai), the mixture was allowed to stand at room temperature for 45 minutes for sedimentation of the erythrocytes. The resultant supernatant was transferred to another plastic centrifugation tube and combined with an equivalent volume of phosphate-buffered saline (hereinafter abbreviated as PBS; Sigma), and then centrifuged at 1600 rpm for 7 minutes at room temperature. The obtained hematocyte fraction was suspended in 4 ml of PBS, and the suspension was superposed on 4 ml of Ficoll-Paque™ PLUS (Amersham Biosciences). The resultant bilayer liquid was centrifuged at 2000 rpm for 30 minutes at room temperature, after which the supernatant was removed and the precipitate was suspended in 10 ml of PBS and centrifuged at 1200 rpm for 7 minutes, and the supernatant was removed. The resulting precipitate was suspended in 0.5 ml of PBS again, and then 10 ml of distilled water (Otsuka Pharmaceutical) was added, 0.5 ml of an aqueous solution containing 3 M NaCl was immediately added to restore isotonicity, the mixture was centrifuged at 1200 rpm for 7 minutes, and the obtained precipitate was suspended in PBS containing 1 mg/ml bovine serum albumin (hereinafter abbreviated as BSA; Sigma) again and stored in ice until being used for the experiment.
# <Fluorescent Labeling of Human Peripheral Blood Neutrophils>
# The obtained neutrophils were suspended in PBS containing 1 mg/ml BSA at 2×10^7 cells/ml. BCECF-AM (Dojin) was added to a final concentration of 5 μM, and the mixture was incubated at 37° C. for 45 minutes. It was then rinsed twice with PBS containing 1 mg/ml BSA by centrifugation, suspended again in PBS containing 1 mg/ml BSA at 5×10^7 cells/ml, and stored in ice until use.
# <Preparation of HUVEC Immobilized Plate>
# Human umbilical vein endothelial cells (hereinafter abbreviated as HUVEC) were suspended in MCDB131 medium (Chlorella Industries) containing 10% fetal calf serum and 30 μg/ml endothelial cell growth supplement (Becton Dickinson Bioscience). The suspension was added at 7.5×10^3 cells/well to a 96-well plate (Iwaki) immobilized with type I collagen, and cultured for 3 days in a CO2 incubator (Hirasawa). Upon confirming confluency of the cells, the supernatant was discarded, the plate was rinsed twice with PBS, and then PBS containing 0.1% glutaraldehyde (Kanto Kagaku) was added at 100 μl/well and the HUVECs were immobilized for 5 minutes. The supernatant was discarded and the plate was washed twice with PBS, and then PBS was added at 100 μl/well and the mixture was stored at 4° C. until use.
# To 6.5 ml of RPMI-1640 medium (Sigma) containing 1 mg/ml of BSA were added 0.5 ml of a suspension of BCECF-AM labeled neutrophils at 5×10^7/ml stored in ice, which was mixed, and the mixture was added at 80 μl/well to a HUVEC immobilized plate. To this plate were immediately added 10 μl/well of a solution of the compound diluted at different concentrations with RPMI-1640 containing 1 mg/ml BSA, and 10 μl/well of 100 nM phorbol myristate acetate (hereinafter abbreviated as PMA; Sigma) in RPMI-1640 containing 1 mg/ml BSA, and the mixture was incubated in a CO2 incubator at 37° C. for 45 minutes. The supernatant was removed from the plate, which was then washed several times with RPMI-1640 at 100 μl/well, and then PBS containing 0.1% NP-40 (Calbiochem) was added thereto at 100 μl/well and the fluorescent intensity was measured with and ARVO™SX 1420 multi label counter (Wallac) to determine the number of adhered cells. […]
# Jurkat cells = experiment: Jurkat cell adhesion system (adhesion to immobilized human fibronectin, PMA-stimulated); type: cell-based; settings: concentration inhibiting by 50% the PMA-stimulated increase in the number of adhered Jurkat cells on human fibronectin, 45-60 minutes, 37° C.
# Description: Evaluation of Compounds in Jurkat Cell Adhesion System
# <Immobilization of Human Fibronectin in 96-Well Plate>
# Human fibronectin (Becton Dickinson Biosciences) was diluted with phosphate-buffered saline (hereinafter abbreviated as PBS; Sigma) to 0.1-0.01 μg/ml, and the diluted solution was added to a 96-well plate (Becton Dickinson) at 50 μl/well, and allowed to stand overnight at 4° C. On the following day, the supernatant was removed from the plate, and then PBS containing 1% bovine serum albumin (hereinafter abbreviated as BSA; Sigma) was added thereto at 100 μl/well and incubation was performed at 37° C. for 2 hours in a CO2 incubator (Hirasawa).
# The supernatant was removed from each plate and Jurkat cells suspended in RPMI-1640 (Sigma) containing 1 mg/ml BSA were added at 80 μl/well for 2.5×10^5 cells/well. The compound diluted to different concentrations with RPMI-1640 containing 1 mg/ml BSA was immediately added at 10 μl/well, and then 100 nM phorbol myristate acetate (hereinafter abbreviated as PMA; Sigma) in RPMI-1640 containing 1 mg/ml BSA was added at 10 μl/well and the plate was incubated in a CO2 incubator at 37° C. for 45-60 minutes. The supernatant was removed from the plate and each well was washed several times with 100 μl/well of RPMI-1640, after which 50 mM citrate buffer (pH 5.0) containing 3.75 mM p-nitrophenol-N-acetyl-β-D-glucosaminide (Sigma) and 0.25% Triton X-100 (Sigma) were added at 60 μl/well, and the mixture was placed in a CO2 incubator and incubated at 37° C. for 45 minutes. After incubation, 50 mM glycine buffer (pH 10.4) containing 5 mM EDTA was added at 90 μl/well, and the absorbance at 405 nm was measured with an EL340 Automated Microplate Reader (BIO-TEK) to determine the adhered cell count. The concentration of each compound which inhibited the increase in the number of adhered cells by the PMA-stimulation by 50% was recorded as the IC50 (μM).
Structure (SMILES),"improvement in comparison with the DSS control group (DAI, number of neutrophils infiltrating the colon, length of the colon) (Balb/c mice)",IC50 [1] [µM],IC50 (Jurkat cells) [µM],IC50 ([1]; HUVEC) [µM],"IC50 (Jurkat cells; Homo sapiens, Jurkat) [µM]"
"CCCCN1CCN(c2ccc(N3CCOCC3)cc2C2=CCC(C(C)(C)C)CC2)CC1.Cl (racemic) [Example 18, 4-[3-(4-t-Butylcyclohex-1-enyl)-4-(4-butylpiperazin-1-yl)phenyl]morpholine hydrochloride]",particularly good improvement,12.1,2.6,,
"COC1CCN(c2ccc(N3CCN(CC4CC4)CC3)c(C3=CCC(C(C)(C)C)CC3)c2)CC1.Cl (racemic) [Example 20, 1-[2-(4-t-Butylcyclohex-1-enyl)-4-(4-methoxypiperidin-1-yl)phenyl]-4-cyclopropylmethylpiperazine hydrochloride]",particularly good improvement,6.1,7.7,,
"CCCCCN1CCN(c2cc(OC)ccc2C2CCC(C)(C)CC2)CC1.Cl [Example 1, 1-[2-(4,4-Dimethylcyclohexyl)-5-methoxyphenyl]-4-pentylpiperazine hydrochloride]",particularly good improvement,9.1,4.5,,
"CCC(=O)CN1CCN(c2ccccc2C2CCC(C)(C)CC2)CC1.Cl [Example 17, 1-{4-[2-(4,4-Dimethylcyclohexyl)phenyl]piperazin-1-yl}butan-2-one hydrochloride]",particularly good improvement,17.9,6.1,,
"CC1(C)C=C(c2ccccc2N2CCN(CC3CCOCC3)CC2)CC(C)(C)C1.Cl [Example 22, 1-(Tetrahydropyran-4-ylmethyl)-4-[2-(3,3,5,5-tetramethylcyclohex-1-enyl)phenyl]piperazine hydrochloride]",particularly good improvement,18.1,2.2,,
"CCCN1CCN(c2ccc(N3CCOCC3)cc2C2=CC(C)(C)CC(C)(C)C2)CC1.Cl [Example 28, 4-[4-(4-Propylpiperazin-1-yl)-3-(3,3,5,5-tetramethylcyclohex-1-enyl)phenyl]morpholine hydrochloride]",particularly good improvement,8.5,3.1,,
"CCC(=O)CN1CCN(c2ccc(N3CCOCC3)cc2C2=CCC(CC)(CC)CC2)CC1.Cl [Example 30, 1-{4-[2-(4,4-Diethylcyclohex-1-enyl)-4-morpholin-4-ylphenyl]piperazin-1-yl}butan-2-one hydrochloride]",particularly good improvement,16.9,5.5,,
"CCCN1CCN(c2ccccc2C2CC(C)(C)CC(C)(C)C2)CC1.Cl [Example 31, 1-Propyl-4-[2-(3,3,5,5-tetramethylcyclohexyl)phenyl]piperazine hydrochloride]",particularly good improvement,9.5,4.5,,
"CC(C)CN1CCN(c2ccccc2C2=CCC3(CC2)CC3)CC1.Cl [Example 34, 1-Isobutyl-4-(2-spiro[2.5]oct-5-en-6-ylphenyl)piperazine hydrochloride]",particularly good improvement,,,,
"CCCCN1CCN(c2ccccc2/C2=C/CCCCCC2)CC1 [Example 47, 1-Butyl-4-(2-cyclooct-1-enylphenyl)piperazine hydrochloride]",,,,11.8,5
"COCCN1CCN(c2ccc(N3CCC(OC)CC3)cc2C2=CCC3(CCCCC3)CC2)CC1 [Example 48, 1-(2-Methoxyethyl)-4-[4-(4-methoxypiperidin-1-yl)-2-spiro[5.5]undec-2-en-3-ylphenyl]piperazine hydrochloride]",,4.9,7.9,,
"CC1(C)CCC(c2ccccc2N2CCN(Cc3ccoc3)CC2)CC1 [Example 69, 1-[2-(4,4-Dimethylcyclohexyl)phenyl]-4-furan-3-ylmethylpiperazine hydrochloride]",,9.4,3.6,,
"COc1ccc(N2CCN(CC3CCOCC3)CC2)c(C2CC(C)(C)CC(C)(C)C2)c1 [Example 85, 1-[4-Methoxy-2-(3,3,5,5-tetramethylcyclohexyl)phenyl]-4-(tetrahydropyran-4-ylmethyl)piperazine hydrochloride]",,16.4,6.4,,
"CCCCN1CCC(c2ccccc2C2CC(C)(C)CC(C)(C)C2)CC1 [Example 103, 1-Butyl-4-[2-(3,3,5,5-tetramethylcyclohexyl)phenyl]piperidine hydrochloride]",,19.3,4.5,,
"CC1(C)CC(c2ccccc2N2CCN(CC3CC3)CC2)CC(C)(C)C1 [Example 117, 1-Cyclopropylmethyl-4-[2-(3,3,5,5-tetramethylcyclohexyl)phenyl]piperazine methanesulfonate]",,7.1,4.7,,
